Data as given in PubChem BioAssay AID330 (DTP/NCI, 2004).
“And” between values parts separate entries of the source, which are not always exact repeats. Identical values can stand only once. Inconclusive results and toxic doses are left out.

Test system: P388 leukemia ip, CD2F1 mice, survival T/C
Test: NCI In Vivo Anticancer Drug Screen. Data for tumor model P388 Leukemia (intraperitoneal) in CD2F1 (CDF1) mice
Conditions: endpoint: median survival time, higher = longer survival
Method in brief: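 Mice carrying the transplanted tumor received test compound or vehicle. Survival was recorded in each group, and the value is the treated-group measurement divided by that of the vehicle-treated control group.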

[1] = dose: 60.0 mg/kg/injection, schedule: Q01DX005 (ip), vehicle: Klucel (hydroxypropylcellulose) (HPC)
[2] = dose: 120.0 mg/kg/injection, schedule: Q01DX005 (ip), vehicle: Klucel (hydroxypropylcellulose) (HPC)
[3] = dose: 240.0 mg/kg/injection, schedule: Q01DX005 (ip), vehicle: Klucel (hydroxypropylcellulose) (HPC)
[4] = dose: 50.0 mg/kg/injection, schedule: Q01DX009 (ip), vehicle: Klucel (hydroxypropylcellulose) (HPC)
[5] = dose: 100.0 mg/kg/injection, schedule: Q01DX009 (ip), vehicle: Klucel (hydroxypropylcellulose) (HPC)
[6] = dose: 200.0 mg/kg/injection, schedule: Q01DX009 (ip), vehicle: Klucel (hydroxypropylcellulose) (HPC)
[7] = dose: 25.0 mg/kg/injection, schedule: Q01DX009 (ip), vehicle: Klucel (hydroxypropylcellulose) (HPC)

Q: Which results are given for CCN(CC)CC(C)Nc1ccc(C)c2sc3ccccc3c(=O)c12 (configuration not stated)?
A: T/C (dose: 75.0 mg/kg/injection, schedule: Q01DX009 (ip), vehicle: saline): 175 % of control; T/C (dose: 300.0 mg/kg/injection, schedule: Q01DX009 (ip), vehicle: saline): 100 % of control

Q: For O=c1cc[nH]c2ccc3ccccc3c12, which T/C (dose: 100.0 mg/kg/injection, schedule: Q01DX001 (ip), vehicle: Klucel (hydroxypropylcellulose) (HPC)) is on record?
A: The T/C was 97 % of control.

Q: And the T/C (dose: 200.0 mg/kg/injection, schedule: Q01DX001 (ip), vehicle: Klucel (hydroxypropylcellulose) (HPC))?
A: The T/C was 96 % of control.

Q: With c1ccc2c(SCCNCCSc3c4ccccc4nc4ccccc34)c3ccccc3nc2c1 as the molecule, how does the T/C [1] read?
A: The T/C was 106 % of control.

Q: And the T/C [2]?
A: Its T/C is 105 % of control.

Q: And the T/C [3]?
A: Its T/C is 106 % of control.

Q: CC1(C)CC(=O)C=C(NCCCCCCCCNC2=CC(=O)CC(C)(C)C2)C1 was tested. Which T/C [4] did it give?
A: Its T/C is 95 % of control.

Q: What about the T/C [5] of the same molecule?
A: The T/C was 106 % of control.

Q: And the T/C [6]?
A: Its T/C is 100 % of control.

Q: With CCOC(=O)C1=CNc2c(C#N)cnn2C1(C(=O)OCC)c1c[nH]c2ccccc12 (configuration not stated) as the molecule, how does the T/C (dose: 25.0 mg/kg/injection, schedule: Q01DX005 (ip), vehicle: Klucel (hydroxypropylcellulose) (HPC)) read?
A: The T/C was 109 % of control.

Q: And the T/C (dose: 50.0 mg/kg/injection, schedule: Q01DX005 (ip), vehicle: Klucel (hydroxypropylcellulose) (HPC))?
A: Its T/C is 102 % of control.

Q: And the T/C (dose: 100.0 mg/kg/injection, schedule: Q01DX005 (ip), vehicle: Klucel (hydroxypropylcellulose) (HPC))?
A: Its T/C is 98 % of control.

Q: And the T/C (dose: 200.0 mg/kg/injection, schedule: Q01DX005 (ip), vehicle: Klucel (hydroxypropylcellulose) (HPC))?
A: Its T/C is 109 % of control.

Q: For NC(=O)C1=CC2C3C=CC2(O)C(=O)OC3O1 (configuration not stated), which T/C (dose: 7.5 mg/kg/injection, schedule: Q01DX005 (ip), vehicle: Klucel (hydroxypropylcellulose) (HPC)) is on record?
A: The T/C was 114 % of control and 119 % of control.

Q: What about the T/C (dose: 30.0 mg/kg/injection, schedule: Q01DX005 (ip), vehicle: Klucel (hydroxypropylcellulose) (HPC)) of the same molecule?
A: Its T/C is 158 % of control.

Q: How did the T/C (dose: 100.0 mg/kg/injection, schedule: Q01DX009 (ip), vehicle: saline with Tween-80) turn out when NC(=O)C1CCCCC1C(N)=O (configuration not stated) was run?
A: Its T/C is 100 % of control.

Q: And the T/C (dose: 200.0 mg/kg/injection, schedule: Q01DX009 (ip), vehicle: saline with Tween-80)?
A: Its T/C is 104 % of control.

Q: What about the T/C (dose: 400.0 mg/kg/injection, schedule: Q01DX009 (ip), vehicle: saline with Tween-80) of the same molecule?
A: Its T/C is 104 % of control.

Q: Which results are given for Cc1cc(=O)n2c(n1)sc1cc(Cl)ccc12?
A: T/C (dose: 18.75 mg/kg/injection, schedule: Q04DX002 (ip), vehicle: Klucel (hydroxypropylcellulose) (HPC)): 102 % of control; T/C (dose: 37.5 mg/kg/injection, schedule: Q04DX002 (ip), vehicle: Klucel (hydroxypropylcellulose) (HPC)): 93 % of control; T/C (dose: 75.0 mg/kg/injection, schedule: Q04DX002 (ip), vehicle: Klucel (hydroxypropylcellulose) (HPC)): 101 % of control

Q: With COc1cc(CCN)ccc1OCc1ccccc1 as the molecule, how does the T/C (dose: 25.0 mg/kg/injection, schedule: Q01DX009 (ip), vehicle: saline) read?
A: The T/C was 107 % of control.

Q: And the T/C (dose: 50.0 mg/kg/injection, schedule: Q01DX009 (ip), vehicle: saline)?
A: Its T/C is 104 % of control.

Q: What about the T/C (dose: 100.0 mg/kg/injection, schedule: Q01DX009 (ip), vehicle: saline) of the same molecule?
A: The T/C was 110 % of control.

Q: Which T/C (dose: 100.0 mg/kg/injection, schedule: Q01DX001 (ip), vehicle: saline with Tween-80) does the source give for Cc1c2c(nc3ccccc13)-c1ccccc1C(C)(C)C2O (configuration not stated) here?
A: Its T/C is 99 % of control.

Q: And the T/C (dose: 200.0 mg/kg/injection, schedule: Q01DX001 (ip), vehicle: saline with Tween-80)?
A: The T/C was 106 % of control.

Q: And the T/C (dose: 400.0 mg/kg/injection, schedule: Q01DX001 (ip), vehicle: saline with Tween-80)?
A: Its T/C is 106 % of control.

Q: What does the source list for O=C1NC(=O)C2(N1)C(=O)c1cccc3cccc2c13 (configuration not stated)?
A: T/C (dose: 50.0 mg/kg/injection, schedule: Q01DX009 (ip), vehicle: distilled water + alcohol): 100 % of control; T/C (dose: 100.0 mg/kg/injection, schedule: Q01DX009 (ip), vehicle: distilled water + alcohol): 102 % of control; T/C (dose: 200.0 mg/kg/injection, schedule: Q01DX009 (ip), vehicle: distilled water + alcohol): 95 % of control

Q: What does the source list for C=C1C(C(=O)OCC)=NNc2c(C(N)=O)ncn21?
A: T/C (dose: 100.0 mg/kg/injection, schedule: Q04DX002 (ip), vehicle: Klucel (hydroxypropylcellulose) (HPC)): 96 % of control; T/C (dose: 200.0 mg/kg/injection, schedule: Q04DX002 (ip), vehicle: Klucel (hydroxypropylcellulose) (HPC)): 101 % of control; T/C (dose: 400.0 mg/kg/injection, schedule: Q04DX002 (ip), vehicle: Klucel (hydroxypropylcellulose) (HPC)): 104 % of control

Q: For O=C1c2c(O)ccc(N3CCOCC3)c2C(=O)c2c(N3CCOCC3)ccc(O)c21, which T/C [1] is on record?
A: Its T/C is 103 % of control.

Q: And the T/C [2]?
A: Its T/C is 98 % of control.

Q: What about the T/C [3] of the same molecule?
A: The T/C was 100 % of control.

Q: Which results are given for CC(C)c1ccc(C(O)C2CC2)cc1 (configuration not stated)?
A: T/C (dose: 50.0 mg/kg/injection, schedule: Q04DX003 (ip), vehicle: saline with Tween-80): 109 % of control; T/C (dose: 100.0 mg/kg/injection, schedule: Q04DX003 (ip), vehicle: saline with Tween-80): 95 % of control

Q: Which results are given for CCN(c1ccccc1)S(=O)(=O)c1cc(N)ccc1C?
A: T/C [7]: 101 % of control; T/C [4]: 100 % of control; T/C [5]: 110 % of control; T/C [6]: 97 % of control; T/C (dose: 400.0 mg/kg/injection, schedule: Q01DX009 (ip), vehicle: Klucel (hydroxypropylcellulose) (HPC)): 93 % of control

Q: What does the source list for COc1nc2ccccc2c2ccnn12?
A: T/C (dose: 4.0 mg/kg/injection, schedule: Q01DX009 (ip), vehicle: saline with Tween-80): 106 % of control; T/C (dose: 8.0 mg/kg/injection, schedule: Q01DX009 (ip), vehicle: saline with Tween-80): 106 % of control; T/C (dose: 16.0 mg/kg/injection, schedule: Q01DX009 (ip), vehicle: saline with Tween-80): 109 % of control

Q: With CCN(CC)CCN1C(=O)CCC1=O as the molecule, how does the T/C (dose: 50.0 mg/kg/injection, schedule: Q01DX005 (ip), vehicle: saline) read?
A: The T/C was 100 % of control.

Q: What about the T/C (dose: 100.0 mg/kg/injection, schedule: Q01DX005 (ip), vehicle: saline) of the same molecule?
A: Its T/C is 109 % of control.

Q: What about the T/C (dose: 200.0 mg/kg/injection, schedule: Q01DX005 (ip), vehicle: saline) of the same molecule?
A: Its T/C is 104 % of control.

Q: Which results are given for NC(=S)NNC(=O)c1ccc([N+](=O)[O-])cc1?
A: T/C [7]: 100 % of control; T/C [4]: 105 % of control; T/C [5]: 99 % of control; T/C [6]: 96 % of control

Q: Which T/C (dose: 50.0 mg/kg/injection, schedule: Q01DX005 (ip), vehicle: saline with Tween-80) does the source give for CCC(CC)(C(=O)Nc1ccc2[nH]c3ccccc3c(=O)c2c1)C(=O)Nc1ccc2[nH]c3ccccc3c(=O)c2c1 here?
A: Its T/C is 97 % of control.

Q: And the T/C (dose: 100.0 mg/kg/injection, schedule: Q01DX005 (ip), vehicle: saline with Tween-80)?
A: Its T/C is 105 % of control.

Q: What about the T/C (dose: 200.0 mg/kg/injection, schedule: Q01DX005 (ip), vehicle: saline with Tween-80) of the same molecule?
A: The T/C was 99 % of control.
